Tests used:
Assay in all cases: pIC50, kinobeads binding competition
CAMKK1 = CAMKK1 (UniProt Q8N5S9)
Outline: (§1)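 Nine compound concentrations were tested, starting at 30 μM in 1:4 steps on live Jurkat cells (60 min, 37 °C, then lysis) or in 1:5 steps on Jurkat lysate or a 1:1:1:1 HEK293/K-562/HepG2/placenta lysate mix (60 min, 4 °C). Kinobeads-bound proteins were digested and quantified with TMT10 LC-MS/MS. pIC50 values are from logistic dose-response fits in the R drc package of fold changes relative to vehicle, from biological duplicates.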

EPHB2 = target: T1, EPHB2 (UniProt P29323)
T1 sequence (whole entry): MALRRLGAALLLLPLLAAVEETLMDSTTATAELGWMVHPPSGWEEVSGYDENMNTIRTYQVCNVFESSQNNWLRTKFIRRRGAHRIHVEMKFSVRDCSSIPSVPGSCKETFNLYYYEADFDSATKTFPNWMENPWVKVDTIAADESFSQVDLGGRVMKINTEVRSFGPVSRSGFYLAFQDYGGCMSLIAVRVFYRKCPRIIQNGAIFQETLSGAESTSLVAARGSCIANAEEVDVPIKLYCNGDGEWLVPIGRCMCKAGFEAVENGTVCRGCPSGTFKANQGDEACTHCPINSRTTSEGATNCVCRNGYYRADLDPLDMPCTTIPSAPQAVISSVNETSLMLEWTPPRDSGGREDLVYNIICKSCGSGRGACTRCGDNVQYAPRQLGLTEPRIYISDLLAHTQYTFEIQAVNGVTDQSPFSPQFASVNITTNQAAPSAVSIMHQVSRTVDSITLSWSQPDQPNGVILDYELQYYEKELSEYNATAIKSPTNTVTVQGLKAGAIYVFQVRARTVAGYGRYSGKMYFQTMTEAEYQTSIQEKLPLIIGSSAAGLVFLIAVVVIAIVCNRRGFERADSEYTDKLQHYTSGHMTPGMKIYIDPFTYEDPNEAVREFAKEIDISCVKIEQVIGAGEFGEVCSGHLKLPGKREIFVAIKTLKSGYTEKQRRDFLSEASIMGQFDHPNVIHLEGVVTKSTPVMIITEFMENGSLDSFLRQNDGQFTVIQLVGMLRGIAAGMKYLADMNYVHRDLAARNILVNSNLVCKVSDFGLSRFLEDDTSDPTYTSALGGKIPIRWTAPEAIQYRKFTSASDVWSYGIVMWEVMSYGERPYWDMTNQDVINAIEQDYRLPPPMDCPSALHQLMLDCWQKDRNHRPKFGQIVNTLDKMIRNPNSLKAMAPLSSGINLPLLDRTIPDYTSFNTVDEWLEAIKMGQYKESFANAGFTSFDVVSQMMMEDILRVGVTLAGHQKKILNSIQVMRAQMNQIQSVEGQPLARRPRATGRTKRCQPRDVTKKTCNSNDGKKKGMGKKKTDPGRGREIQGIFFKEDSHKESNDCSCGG
Outline: as §1

HIPK1 = HIPK1 (UniProt Q86Z02)
Outline: as §1

PRKG1 = target: T2, PRKG1 (UniProt Q13976); settings: cell material: Lysate mix
T2 sequence (whole entry): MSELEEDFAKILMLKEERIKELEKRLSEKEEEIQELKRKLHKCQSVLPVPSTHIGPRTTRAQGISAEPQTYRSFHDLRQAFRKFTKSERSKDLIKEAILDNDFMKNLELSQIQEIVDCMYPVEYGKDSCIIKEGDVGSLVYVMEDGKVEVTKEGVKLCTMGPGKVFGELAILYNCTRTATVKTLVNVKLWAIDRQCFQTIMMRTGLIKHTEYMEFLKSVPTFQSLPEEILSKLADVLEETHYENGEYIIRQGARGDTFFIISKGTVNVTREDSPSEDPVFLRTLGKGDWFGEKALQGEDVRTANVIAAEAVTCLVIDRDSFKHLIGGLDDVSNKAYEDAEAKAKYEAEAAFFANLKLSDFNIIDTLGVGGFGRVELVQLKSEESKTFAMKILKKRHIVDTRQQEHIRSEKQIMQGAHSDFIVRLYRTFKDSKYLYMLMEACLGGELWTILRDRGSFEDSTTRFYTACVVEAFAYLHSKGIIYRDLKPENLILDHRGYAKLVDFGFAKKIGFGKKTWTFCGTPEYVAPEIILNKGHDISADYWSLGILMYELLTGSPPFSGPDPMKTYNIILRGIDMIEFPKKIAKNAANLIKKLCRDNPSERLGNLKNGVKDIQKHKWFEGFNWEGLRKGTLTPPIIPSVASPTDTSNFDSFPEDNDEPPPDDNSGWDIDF
Outline: as §1

UniProt Q13188 = target: T3, UniProt Q13188
T3 sequence (whole entry): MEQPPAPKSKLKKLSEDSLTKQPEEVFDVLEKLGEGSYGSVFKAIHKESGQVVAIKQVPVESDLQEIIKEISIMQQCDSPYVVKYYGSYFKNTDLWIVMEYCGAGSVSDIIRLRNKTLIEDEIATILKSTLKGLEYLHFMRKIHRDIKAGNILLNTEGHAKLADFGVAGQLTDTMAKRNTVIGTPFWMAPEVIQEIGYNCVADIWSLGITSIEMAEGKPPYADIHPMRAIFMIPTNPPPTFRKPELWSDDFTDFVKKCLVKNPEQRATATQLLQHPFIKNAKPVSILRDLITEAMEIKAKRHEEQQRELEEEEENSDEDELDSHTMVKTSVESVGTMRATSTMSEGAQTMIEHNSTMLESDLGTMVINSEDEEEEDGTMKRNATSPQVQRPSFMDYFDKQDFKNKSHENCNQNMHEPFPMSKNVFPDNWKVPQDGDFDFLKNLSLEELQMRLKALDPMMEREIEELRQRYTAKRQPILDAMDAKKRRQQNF
Outline: as §1

UniProt Q15208 = target: UniProt Q15208
Outline: as §1

Chain of HIPK1 (Q86Z02 whole entry, looked up): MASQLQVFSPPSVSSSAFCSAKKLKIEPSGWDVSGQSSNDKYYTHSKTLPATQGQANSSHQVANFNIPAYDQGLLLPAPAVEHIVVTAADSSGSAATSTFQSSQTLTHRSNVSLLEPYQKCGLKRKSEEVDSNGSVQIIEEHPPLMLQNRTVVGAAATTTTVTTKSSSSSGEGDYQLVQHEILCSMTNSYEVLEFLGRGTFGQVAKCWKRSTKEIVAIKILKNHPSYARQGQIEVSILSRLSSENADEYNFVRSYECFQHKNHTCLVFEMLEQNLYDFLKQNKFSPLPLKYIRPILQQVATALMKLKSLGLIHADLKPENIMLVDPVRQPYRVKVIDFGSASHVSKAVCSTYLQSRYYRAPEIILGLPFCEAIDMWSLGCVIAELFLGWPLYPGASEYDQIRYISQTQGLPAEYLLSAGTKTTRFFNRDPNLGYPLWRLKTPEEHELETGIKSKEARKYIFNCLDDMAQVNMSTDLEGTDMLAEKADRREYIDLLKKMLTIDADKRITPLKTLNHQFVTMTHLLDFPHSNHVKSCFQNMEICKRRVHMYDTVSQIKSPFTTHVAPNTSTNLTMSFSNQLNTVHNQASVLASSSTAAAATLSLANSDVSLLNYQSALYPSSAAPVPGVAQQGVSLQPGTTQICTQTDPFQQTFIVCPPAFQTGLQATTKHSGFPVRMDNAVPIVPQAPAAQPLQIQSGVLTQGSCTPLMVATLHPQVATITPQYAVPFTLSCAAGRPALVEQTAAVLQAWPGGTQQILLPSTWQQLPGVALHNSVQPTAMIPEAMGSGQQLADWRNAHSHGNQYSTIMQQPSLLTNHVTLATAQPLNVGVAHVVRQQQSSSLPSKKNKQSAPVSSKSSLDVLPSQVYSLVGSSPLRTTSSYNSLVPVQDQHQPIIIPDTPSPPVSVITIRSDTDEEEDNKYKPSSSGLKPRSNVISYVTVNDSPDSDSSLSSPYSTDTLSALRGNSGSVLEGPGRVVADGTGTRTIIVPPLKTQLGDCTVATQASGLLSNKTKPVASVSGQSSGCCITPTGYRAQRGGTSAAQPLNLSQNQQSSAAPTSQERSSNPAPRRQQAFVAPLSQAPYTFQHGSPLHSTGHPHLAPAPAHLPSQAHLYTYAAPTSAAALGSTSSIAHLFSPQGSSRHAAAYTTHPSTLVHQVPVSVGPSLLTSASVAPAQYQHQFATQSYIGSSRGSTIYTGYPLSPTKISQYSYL
Chain of UniProt Q15208 (Q15208 whole entry, looked up): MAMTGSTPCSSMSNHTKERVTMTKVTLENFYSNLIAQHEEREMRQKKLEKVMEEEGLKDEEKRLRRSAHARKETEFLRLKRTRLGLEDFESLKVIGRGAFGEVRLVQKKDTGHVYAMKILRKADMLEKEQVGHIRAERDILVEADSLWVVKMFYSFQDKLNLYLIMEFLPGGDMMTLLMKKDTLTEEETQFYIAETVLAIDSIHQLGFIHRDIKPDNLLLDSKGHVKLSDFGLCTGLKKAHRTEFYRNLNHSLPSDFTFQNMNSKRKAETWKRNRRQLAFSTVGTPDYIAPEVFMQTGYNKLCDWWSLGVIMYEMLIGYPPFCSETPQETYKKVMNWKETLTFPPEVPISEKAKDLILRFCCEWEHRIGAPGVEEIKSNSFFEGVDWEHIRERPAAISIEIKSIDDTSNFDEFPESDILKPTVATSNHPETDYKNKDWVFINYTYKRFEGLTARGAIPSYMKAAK
Chain of CAMKK1 (Q8N5S9 whole entry, looked up): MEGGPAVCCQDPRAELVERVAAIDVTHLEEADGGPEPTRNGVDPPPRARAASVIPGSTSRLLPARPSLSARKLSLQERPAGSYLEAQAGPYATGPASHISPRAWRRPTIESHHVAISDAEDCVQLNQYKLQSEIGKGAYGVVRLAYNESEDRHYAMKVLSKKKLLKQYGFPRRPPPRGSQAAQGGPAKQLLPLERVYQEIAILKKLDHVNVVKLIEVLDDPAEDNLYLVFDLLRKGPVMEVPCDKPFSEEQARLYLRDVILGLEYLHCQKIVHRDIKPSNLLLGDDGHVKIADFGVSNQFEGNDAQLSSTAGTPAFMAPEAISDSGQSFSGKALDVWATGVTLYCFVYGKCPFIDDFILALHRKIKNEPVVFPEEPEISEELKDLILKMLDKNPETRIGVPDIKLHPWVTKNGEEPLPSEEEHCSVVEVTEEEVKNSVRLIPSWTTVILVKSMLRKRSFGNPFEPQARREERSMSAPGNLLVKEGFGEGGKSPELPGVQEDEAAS

Row | Compound | pIC50 (CAMKK1; cell material: Lysate mix) | pIC50 (EPHB2; cell material: Lysate mix) | pIC50 (HIPK1; cell material: Lysate mix) | pIC50 (PRKG1) | pIC50 (UniProt Q13188; cell material: Lysate mix) | pIC50 (UniProt Q15208; cell material: Lysate mix) | pIC50 (CAMKK1; cell material: Jurkat cells) | pIC50 (CAMKK1; cell material: Jurkat lysate) | pIC50 (EPHB2; cell material: Jurkat cells) | pIC50 (EPHB2; cell material: Jurkat lysate) | pIC50 (HIPK1; cell material: Jurkat cells) | pIC50 (HIPK1; cell material: Jurkat lysate) | pIC50 (UniProt Q13188; cell material: Jurkat cells) | pIC50 (UniProt Q13188; cell material: Jurkat lysate) | pIC50 (UniProt Q15208; cell material: Jurkat cells) | pIC50 (UniProt Q15208; cell material: Jurkat lysate)
1 | CCNC(=O)c1cc(Nc2cc(C)[nH]n2)nc(N2CCN(Cc3ccc(S(=O)(=O)F)cc3)CC2)n1 | 5.97 | < 4.52 | 4.78 | < 4.52 | 5.64 | 4.8 |  |  |  |  |  |  |  |  |  | 
2 | CCNC(=O)c1cc(Nc2cc(C3CC3)[nH]n2)nc(N2CCN(Cc3ccc(S(=O)(=O)F)cc3)CC2)n1 | 6.68 | < 4.52 | 5.78 | < 4.52 | 5.94 | 5.83 |  |  |  |  |  |  |  |  |  | 
3 | Cc1cc(Nc2cc(C(=O)NCCNC(=O)OC3CC/C=C/CCC3)nc(N3CCN(Cc4ccc(S(=O)(=O)F)cc4)CC3)n2)n[nH]1 (stereo not given) | 5.96 | < 4.52 | < 4.52 | < 4.52 | < 4.52 | < 4.52 |  |  |  |  |  |  |  |  |  | 
4 | C#CCNC(=O)c1cc(Nc2cc(C3CC3)[nH]n2)nc(N2CCN(Cc3ccc(S(=O)(=O)F)cc3)CC2)n1 | 7.04 | < 4.52 | 6 | < 4.52 | 6.27 | 6.2 | 6.26 | 6.86 | < 4.52 | < 4.52 | 6.08 | 5.37 | 6.3 | 5.64 | 6.44 | 5.44
5 | C#CCNC(=O)c1cc(Nc2cc(C)[nH]n2)nc(N2CCN(Cc3ccc(S(=O)(=O)F)cc3)CC2)n1 | 5.98 | < 4.52 | 5.06 | < 4.52 | 5.6 | 5 |  |  |  |  |  |  |  |  |  | 
6 | O=C(NCCNC(=O)c1cc(Nc2cc(C3CC3)[nH]n2)nc(N2CCN(Cc3ccc(S(=O)(=O)F)cc3)CC2)n1)OC1CC/C=C/CCC1 (stereo not given) | 6.42 | < 4.52 | < 4.52 | < 4.52 | < 4.52 | 5.11 | 6.77 | 6.72 | < 4.52 | < 4.52 | 5.3 | < 4.52 | 5.6 |  | 6.33 | 4.8

Source: the supplement of paper PMC12076712
